The target of data set [1] is hu i-20S β5i-subunit (Homo sapiens, UniProt P20618+P28062). In words: N,C-capped dipeptides IC50, Ac-ANW-AMC fluorescence assay. Conditions: for SI (selectivity index): Hu c-20S over Hu i-20S. Format: biochemical.
Protocol: (§1) All inhibitory assays for N,C capped dipeptides were performed in a black solid-bottom 96-well plate. In general, compound plates were prepared starting from 10 mM in 3× series dilution to 15 μM. 1 μl of DMSO stock was transferred to a black 96-well plate and 100 μL of reaction mixture were added 15 μM N-acetyl-Alanine-Asparagine-Tryptophan-7-amino-4-methylcourmarin (Ac-ANW-AMC) or 25 μM succinyl-Leucine-Leucine-Valine-Tyrosine-7-amino-4-methyl-courmarin (succ-LLVY-AMC), 0.4 nM hu i-20S β5i-subunit or 0.2 nM hu c-20S β5c-subunit, 0.02% SDS, 1% BSA, 0.5 mM EDTA in 20 mM HEPES buffer at pH7.5. The plates were then spun at 1000 rpm for 1 minute, and the fluorescence units of each well were recorded at λex=360 nm, λem=460 nm for 2 hours. The slopes of the initial linear range of the time course were used to calculate the velocity, and relative activities were normalized to the velocities of the DMSO control.
For data set [2], the system named is Karpas 1106p cells. Nature of the data set: Cytotoxicity (LD50) against Karpas lymphoma cells. The format is cell-based, human. Conditions: Table 3. The text has this: Table 3 lists the inhibition kinetic parameters, selectivity index, and calculated log Ps of selected dipeptides.
The target of data set [3] is hu c-20S β5c-subunit (Homo sapiens, UniProt P20618+P28074). In words: N,C-capped dipeptides IC50, succ-LLVY-AMC fluorescence assay. The format is biochemical.
Protocol: as §1

Results on 27 compounds are retold here after patent publication USRE49816E1, “Dipeptides as inhibitors of human immunoproteasomes” (CORNELL UNIVERSITY, priority 2014, dated 2024).

One may read the IC50 as the concentration that inhibits the measured activity by half. Lower therefore signals inhibition by little substance.

Consider `COC[C@H](NC(=O)[C@H](CC(=O)NOC(C)(C)C)NC(=O)c1cc(C)on1)C(=O)NCc1cccc2ccccc12` [DPLG-2144, (S)—N^4-(tert-butoxy)-N^1—((S)-3-methoxy-1-((napthalen-1-ylmethyl)amino)-1-oxopropan-2-yl)-2-(5-methylisoxazole-3-carboxamido)succinamide], for which, in data set [1], the IC50 came out at 9 nM and the “SI (selectivity index)” value worked out at 69. Besides, the LD50 in data set [2] came to 1.47 µM. In data set [3], this compound showed an IC50 of 620 nM.

On to `COC[C@H](NC(=O)[C@H](CC(=O)NOC(C)(C)C)NC(=O)Cc1ccccc1)C(=O)NCc1cccc2ccccc12` [DPLG-2222, (S)—N^4-(tert-butoxy)-N^1—((S)-3-methoxy-1-((naphthalen-1-ylmethyl)amino)-1-oxopropan-2-yl)-2-(2-phenylacetamido)succinamide], for which the IC50 in data set [1] turned out to be 11 nM; in data set [3] it was 738 nM. The “SI (selectivity index)” value in data set [1] worked out at 70. For the same compound, in data set [2], the LD50 was above 100 µM.

Consider `C[C@H](NC(=O)[C@H](CCC(=O)NC(C)(C)C)NC(=O)CCc1ccccc1)C(=O)NCCc1cccc2ccccc12` [DPLG-3012], for which the IC50 came to 930 nM in data set [1] and 9650 nM in data set [3]. Also, the “SI (selectivity index)” value in data set [1] worked out at 10.4. For the same compound, the LD50 in data set [2] came to 4.16 µM.

As to `C[C@H](NC(=O)[C@H](CC(=O)NOC(C)(C)C)NC(=O)CCc1ccccc1)C(=O)NCc1ccnc2ccccc12` [DPLG-2068, (S)—N^4-(tert-butoxy)-N^1—((S)-1-oxo-1-((quinolin-4-ylmethyl)amino)propan-2-yl)-2-(3-phenylpropanami-do)succinamide], in data set [1], the IC50 was found to be 3060 nM and the “SI (selectivity index)” value is on record as 9.3. The LD50 in data set [2] was above 100 µM. The compound also yielded an IC50 in data set [3] of 28400 nM.

Take `C[C@H](NC(=O)[C@H](CC(=O)NC(C)(C)C)NC(=O)C(=O)c1c[nH]c2ccccc12)C(=O)NCc1cccc2ccccc12` [DPLG-3053]: the LD50 in data set [2] was found to be 0.22 µM.

In the case of `CC(C)(C)NC(=O)C[C@H](NC(=O)C(=O)c1c[nH]c2ccccc12)C(=O)N[C@@H](Cc1ccc(F)cc1)C(=O)NCc1cccc2ccccc12` [DPLG-3084], in data set [1], the midpoint of inhibition, the IC50, lay at 1.4 nM and the “SI (selectivity index)” value amounted to 26. In data set [2], the LD50 came out at 0.084 µM. The IC50 in data set [3] amounted to 37 nM.

For the compound `CC(C)(C)NC(=O)CC[C@H](NC(=O)CCc1ccccc1)C(=O)N[C@@H](Cc1ccc(F)cc1)C(=O)NCc1cccc2ccccc12` [DPLG-3083], in data set [1], the IC50 is 3.3 nM and the “SI (selectivity index)” value was 90. In data set [2], this compound displayed an LD50 of 1.20 µM. Besides, it took 300 nM to reach half-maximal inhibition in data set [3] (IC50).

Regarding `C[C@H](NC(=O)[C@H](CCC(=O)NC(C)(C)C)NC(=O)CCc1ccccc1)C(=O)NOc1ccccc1` [DPLG-3013], in data set [1], the IC50 is 230 nM and the “SI (selectivity index)” value is 2.9. This compound displayed an LD50 in data set [2] of 11.03 µM. In data set [3], this compound gave an IC50 of 660 nM.

With `CC(C)(C)NC(=O)C[C@H](NC(=O)CCc1ccccc1)C(=O)N[C@@H](Cc1ccc(F)cc1)C(=O)NCc1cccc(-c2ccccc2)c1` [DPLG-21050], in data set [1], the IC50 was found to be 26 nM and the “SI (selectivity index)” value was above 3846. In data set [3], this compound displayed an IC50 above 100000 nM.

For `COC[C@H](NC(=O)[C@H](CC(=O)NC1COC1)NS(C)(=O)=O)C(=O)NCc1cccc2ccccc12` [DPLG-2219, (S)—N^1—((S)-3-methoxy-1-((naphthalen-1-ylmethyl)amino)-1-oxopropan-2-yl)-2-(methylsulfonamido)-N^4-(oxetan-3-yl)succinamide], the IC50 in data set [1] is 4730 nM; in data set [3], above 100000 nM. Moreover, the “SI (selectivity index)” value in data set [1] is listed as above 21. The compound further yielded an LD50 in data set [2] above 100 µM.

As to `C[C@H](NC(=O)[C@H](CC(=O)NOC(C)(C)C)NC(=O)c1cnccn1)C(=O)NCc1cccc2ccccc12` [DPLG-2098], in data set [2], the LD50 was above 100 µM.

Take `COC[C@H](NC(=O)CCc1ccccc1)C(=O)N[C@@H](C)C(=O)NCc1cccc2ccccc12` [DPLG-2048, (S)-3-methoxy-N—((S)-1-((naphthalen-1-ylmethyl)amino)-1-oxopropan-2-yl)-2-(3-phenylpropanamido)propanamide]: in data set [1], 34900 nM corresponded to half-maximal inhibition (IC50) and the “SI (selectivity index)” value turned out to be 1.7. The same compound had an LD50 in data set [2] above 100 µM. The compound further gave an IC50 in data set [3] of 59800 nM.

As to `COC[C@H](NC(=O)[C@H](CC(=O)NC(C)(C)C)NC(=O)c1cc(C)on1)C(=O)NCc1cccc2ccccc12` [DPLG-2244, (S)—N^4-(tert-butyl)-N^1((S)-3-methoxy-1-((naphthalen-1-ylmethyl)amino)-1-oxopropan-2-yl)-2-(5-methylisoxazole-3-carboxamido)succinamide], the LD50 in data set [2] turned out to be 2.20 µM.

`COC[C@H](NC(=O)[C@H](CC(=O)NC1COC1)NS(=O)(=O)c1ccc(C)cc1)C(=O)NCc1cccc2ccccc12` [DPLG-2229]: in data set [1], the IC50 is 69 nM and the “SI (selectivity index)” value was 236. This compound also had an LD50 in data set [2] above 100 µM. This compound gave an IC50 in data set [3] of 19300 nM.

`COC[C@H](NC(=O)[C@H](CC(=O)NOC(C)(C)C)NC(=O)CCc1ccccc1)C(=O)NCc1cccc(OC)c1OC` [DPLG-2211]: the IC50 came to 245 nM in data set [1] and 1280 nM in data set [3]. In data set [1], the “SI (selectivity index)” value was 5. In addition, the LD50 in data set [2] came out at 4.18 µM.

`COC[C@H](NC(=O)[C@H](CC(=O)NOC(C)(C)C)NC(=O)CCc1ccccc1)C(=O)NCc1cccc2c1NCCC2` [DPLG-2226, (S)—N^4-(tert-butoxy)-N^−1—((S)-3-methoxy-1-oxo-1-(((1,2,3,4-tetrahydroquinolin-8-yl)methyl)amino)propan-2-yl)-2-(3-phenylpropanamido)succinamide]: in data set [1], the IC50 was determined as 1150 nM and the “SI (selectivity index)” value worked out at 68. The compound further displayed an LD50 in data set [2] above 100 µM. This compound returned an IC50 in data set [3] of 78100 nM.

Take `C[C@H](NC(=O)[C@H](CC(=O)NOC(C)(C)C)NC(=O)CCc1ccccc1)C(=O)NCc1cccc2ncccc12` [DPLG-2073, (S)—N^4-(tert-butoxpropan-2-yl)-2-(3-phenylpropanami-do)succinamide]: in data set [1], the IC50 was found to be 1370 nM and the “SI (selectivity index)” value came out at 10. The compound also had an LD50 in data set [2] above 100 µM. In data set [3], this compound came in with an IC50 of 13300 nM.

On to `COC[C@H](NC(=O)[C@H](CC(=O)NC(C)(C)C)NC(=O)CCc1ccccc1)C(=O)NCc1cccc2ccccc12` [DPLG-2230, (S)—N^4-(tert-butyl)-N^1—((S)-3-methoxy-1-((naphthalen-1-ylmethyl)amino)-1-oxopropan-2-yl)-2-(3-phenylpropanamido)succinamide], for which the LD50 in data set [2] amounted to 1.11 µM.

Take `Cc1ccc(S(=O)(=O)N[C@@H](CCC(=O)NC(C)(C)C)C(=O)N[C@@H](C)C(=O)NCc2cccc(C(F)(F)F)c2)cc1` [DPLG-3014]: the IC50 in data set [1] was 25 nM; in data set [3], 420 nM. For the same compound, the “SI (selectivity index)” value in data set [1] came out at 17. Besides, in data set [2], the LD50 worked out at 0.96 µM.

As for `COC[C@H](NC(=O)[C@H](CC(=O)NOC(C)(C)C)NC(=O)CCCc1ccccc1)C(=O)NCc1cccc2ccccc12` [DPLG-2223, (S) N^4-(tert-butoxy)-N^1—((S)-3methoxy-1-((naphthalen-1-ylmethyl)amino)-1-oxopropan-2-yl)-2-(4-phenylbutanamido)succinamide], in data set [1], the IC50 came to 6.5 nM and the “SI (selectivity index)” value stood at 118. Further, the LD50 in data set [2] stood at 4.47 µM. Moreover, in data set [3], the IC50 is 767 nM.

For `COC[C@H](NC(=O)[C@H](CC(=O)NOC(C)(C)C)NC(=O)CCc1ccccc1)C(=O)NCc1cccc2cccnc12` [DPLG-2220], in data set [1], the IC50 came to 70 nM and the “SI (selectivity index)” value is reported as 19. In addition, the LD50 in data set [2] was 6.27 µM. The same compound returned an IC50 in data set [3] of 1350 nM.

In data set [2], `C[C@H](NC(=O)[C@H](CC(=O)NOC(C)(C)C)NC(=O)Cc1ccccc1)C(=O)NCc1cccc2ccccc12` [DPLG-2142, (S)—N4-(tert-butoxy)-N1-((S)-1-((naphthalen-1-ylmethyl)amino)-1-oxopropan-2-yl)-2-(2-phenylacetamido)succinamide] came in with an LD50 of 9.1 µM.

Regarding `CC(C)(C)NC(=O)C[C@H](NC(=O)CCc1ccccc1)C(=O)N[C@@H](Cc1ccncc1)C(=O)NCc1cccc2ccccc12` [DPLG-21033], in data set [1], half-maximal inhibition (IC50) required 5.3 nM and the “SI (selectivity index)” value stood at 83. In data set [3], this compound yielded an IC50 of 438 nM.

`CC(C)(C)NC(=O)C[C@H](NC(=O)CCc1ccccc1)C(=O)N[C@@H](Cc1ccc(F)cc1)C(=O)NCc1cccc2ccccc12` [DPLG-3066]: the results for the IC50 in data set [1] and in data set [3] were 5.3 nM and above 100000 nM, respectively. The “SI (selectivity index)” value in data set [1] was above 19000. This compound gave an LD50 in data set [2] of 0.198 µM.

Consider `CC(=O)N[C@@H](Cc1ccc(F)cc1)C(=O)NCc1cccc2ccccc12` [DPLG-2109], for which, in data set [1], half-maximal inhibition (IC50) was put at 57100 nM and the “SI (selectivity index)” value is above 2. This compound also came in with an LD50 in data set [2] above 100 µM. In data set [3], this compound returned an IC50 above 100000 nM.

As for `COC[C@H](NC(=O)[C@H](CC(=O)NOC(C)(C)C)NC(=O)CN1CCOCC1)C(=O)NCc1cccc2ccccc12` [DPLG-2143, (S)—N^4-(tert-butoxy)-N^1—((S)-3-methoxy-1-((naphthalen-1-ylmethyl)amino)-1-oxopropan-2-yl)-2-(2-morpholinoacetamido)succinamide], in data set [1], the IC50 was determined as 250 nM and the “SI (selectivity index)” value is on record as 78. This compound also showed an LD50 in data set [2] above 100 µM. In data set [3], this compound had an IC50 of 19600 nM.

For the compound `CC(C)(C)NC(=O)C[C@H](NC(=O)CCc1ccccc1)C(=O)N[C@@H](Cc1ccc(F)cc1)C(=O)NCc1ccc(-c2ccccc2)cc1` [DPLG-21049], in data set [1], inhibition was half-maximal at 133 nM (IC50) and the “SI (selectivity index)” value is given as 5. In data set [3], this compound gave an IC50 of 700 nM.
